Consider 10 molecules from patent US6525066B2, “4-oxoquinolizine antimicrobial having 2-pyridone skeleton as partial structure” (SATO Pharmaceutical Co., Ltd., priority 1999, dated 2003).

Holding throughout (type): cell-based
The test system of assay [1] is Bacteroides fragilis GAI0675. Nature of the assay: In vitro antibacterial activity against anaerobic bacteria (MIC). To be noted: Bacteroides fragilis GAI0675 (Table 2: Bacteroides GMI0675), anaerobic bacteria method; for MIC: read-out: Antibacterial spectrum MIC. The procedure: (§1) The in vitro antibacterial activity of the present compound (Example 2, 4, 6, 8, 10, 12, 14, 16 and 18) was tested by the standard method of Japan Chemical Therapy Institute using agar plate dilution method which is described in CHEMOTHERAPY Vol.29, […], 1981. For an anaerobic bacteria, it was tested by the method described in CHEMOTHERAPY Vol. 27, 559-590, 1979. The minimum concentration at which the growth of a bacteria could be inhibited by the present compound was decided as MIC (μg/ml).

The test system of assay [2] is Streptococcus aureus Clin-211. The assay is described as follows: In vitro antibacterial activity, agar plate dilution method (MIC). To be noted: for MIC: CLIN211, read-out: Antibacterial spectrum MIC. The procedure: as §1
Assay [3] concerns Streptococcus aureus JCM2874. The assay is described as above. To be noted: for MIC: read-out: Antibacterial spectrum MIC. The method, then: as §1
Assay [4] concerns Streptococcus Pneumoniae IID553. The assay is described as above. To be noted: for MIC: read-out: Antibacterial spectrum MIC. The procedure:
as §1

For assay [5], the system named is Escherichia coli IFO 12734. Described as above. To be noted: for MIC: IFO12734, read-out: Antibacterial spectrum MIC. The procedure: as §1
For assay [6], the system named is Pseudomonas aeruginosa CSJ 1853. The assay is described as above. To be noted: for MIC: CSJ1853, read-out: Antibacterial spectrum MIC. The procedure:
as §1

The structures appear in SMILES notation. Values after ≈ are worked out from the molar mass of the structure shown.

Broadly, the MIC is the least concentration at which growth counts as inhibited.

Turning to `Cc1c(-c2ccc3c(c2)CNC3C)ccn2c(=O)c(C(=O)O)cc(C3CC3)c12` (stereo not drawn) [Example 2, 1-cyclopropyl-9-methyl-8-(1-methylisoindoline-5-yl)-4-oxo-4H-quinolizine-3-carboxylic acid], the MIC came out at 0.031 µg/mL (≈ 0.0828 µM) in assay [1]; 0.25 µg/mL (≈ 0.668 µM) in assay [2]; 0.008 µg/mL (≈ 0.0214 µM) in assay [3]; 0.063 µg/mL (≈ 0.168 µM) in assay [4]; 0.031 µg/mL (≈ 0.0828 µM) in assay [5]; 0.25 µg/mL (≈ 0.668 µM) in assay [6].

Turning to `COc1c(-c2ccc3c(c2)CNC3C)ccn2c(=O)c(C(=O)O)cc(C3CC3)c12` (stereo not drawn) [Example 4, 1-cyclopropyl-9-methoxy-8-(1-methylisoindoline-5-yl)-4-oxo-4H-quinolizine-3-carboxylic acid], the MIC was determined as 0.25 µg/mL (≈ 0.64 µM) in assay [1]; 1 µg/mL (≈ 2.56 µM) in assay [2]; 0.063 µg/mL (≈ 0.161 µM) in assay [3]; 0.25 µg/mL (≈ 0.64 µM) in assay [4]; 0.125 µg/mL (≈ 0.32 µM) in assay [5]; 1 µg/mL (≈ 2.56 µM) in assay [6].

`Cc1c(-c2ccc3c(c2)CNC3)ccn2c(=O)c(C(=O)O)cc(C3CC3)c12` [Example 6, 1-cyclopropyl-9-methyl-8-(isoindoline-5-yl)-4-oxo-4H-quinolizine-3-carboxylic acid]: the MIC in assay [1] is 0.031 µg/mL (≈ 0.086 µM); in assay [2], 0.125 µg/mL (≈ 0.347 µM); in assay [3], 0.008 µg/mL (≈ 0.0222 µM); in assay [4], 0.031 µg/mL (≈ 0.086 µM); in assay [5], 0.016 µg/mL (≈ 0.0444 µM); in assay [6], 0.25 µg/mL (≈ 0.694 µM).

Regarding `COc1c(-c2ccc3c(c2)CNC3)ccn2c(=O)c(C(=O)O)cc(C3CC3)c12` [Example 8, 1-cyclopropyl-9-methoxy-8-(isoindoline-5-yl)-4-oxo-4H-quinolizine-3-carboxylic acid], the MIC in assay [1] is 0.25 µg/mL (≈ 0.664 µM); in assay [2], 0.5 µg/mL (≈ 1.33 µM); in assay [3], 0.063 µg/mL (≈ 0.167 µM); in assay [4], 0.25 µg/mL (≈ 0.664 µM); in assay [5], 0.063 µg/mL (≈ 0.167 µM); in assay [6], 1 µg/mL (≈ 2.66 µM).

`CC1NCc2cc(-c3ccn4c(=O)c(C(=O)O)cc(C5CC5)c4c3OC(F)F)ccc21` (stereo not drawn) [Example 10, 1-cyclopropyl-9-difluoromethoxy-8-((+)-1-methylisoindoline-5-yl)-4-oxo-4H-quinolizine-3-carboxylic acid]: the MIC worked out at 0.5 µg/mL (≈ 1.17 µM) in assay [1]; 1 µg/mL (≈ 2.35 µM) in assay [2]; 0.063 µg/mL (≈ 0.148 µM) in assay [3]; 0.25 µg/mL (≈ 0.586 µM) in assay [4]; 0.125 µg/mL (≈ 0.293 µM) in assay [5]; 4 µg/mL (≈ 9.38 µM) in assay [6].

Regarding `O=C(O)c1cc(C2CC2)c2c(OC(F)F)c(-c3ccc4c(c3)CNC4)ccn2c1=O` [Example 12, 1-cyclopropyl-9-difloromethoxy-8-(isoindoline-5-yl)-4-oxo-4H-quinolizine-3-carboxylic acid], the “Antibacterial spectrum MIC” value is 0.25 µg/mL in assay [1]; 1 µg/mL in assay [2]; 0.031 µg/mL in assay [3]; 0.25 µg/mL in assay [4]; 0.125 µg/mL in assay [5]; 4 µg/mL in assay [6].

Consider `Cc1c(-c2cc(F)c3c(c2)CNC3)ccn2c(=O)c(C(=O)O)cc(C3CC3)c12` [Example 14, 1-cyclopropyl-8-(4-fluoroisoindoline-6-yl)-9-methyl-4-oxo-4H-quinolizine-3-carboxylic acid], for which the MIC in assay [1] turned out to be 0.016 µg/mL (≈ 0.0423 µM); in assay [2] it was 0.125 µg/mL (≈ 0.33 µM); in assay [3] it was 0.008 µg/mL (≈ 0.0211 µM); in assay [4] it was 0.031 µg/mL (≈ 0.0819 µM); in assay [5], 0.031 µg/mL (≈ 0.0819 µM); in assay [6] it was 0.5 µg/mL (≈ 1.32 µM).

On to `COc1cc(-c2ccn3c(=O)c(C(=O)O)cc(C4CC4)c3c2OC)cc2c1CNC2` [Example 16, 1-cyclopropyl-9-methoxy-8-(4-methoxyisoindoline-6-yl)-4-oxo-4H-quinolizine-3-carboxylic acid], for which the MIC turned out to be 0.25 µg/mL (≈ 0.615 µM) in assay [1]; 2 µg/mL (≈ 4.92 µM) in assay [2]; 0.125 µg/mL (≈ 0.308 µM) in assay [3]; 0.5 µg/mL (≈ 1.23 µM) in assay [4]; 0.5 µg/mL (≈ 1.23 µM) in assay [5]; 8 µg/mL (≈ 19.7 µM) in assay [6].

`COc1cc(-c2ccn3c(=O)c(C(=O)O)cc(C4CC4)c3c2C)cc2c1CNC2` [Example 18, 1-cyclopropyl-9-methyl-8-(4-methoxy-isoindoline-6-yl)-4-oxo-4H-quinolizine-3-carboxylic acid]: the MIC in assay [1] is 0.063 µg/mL (≈ 0.161 µM); in assay [2], 0.5 µg/mL (≈ 1.28 µM); in assay [3] it was 0.031 µg/mL (≈ 0.0794 µM); in assay [4], 0.125 µg/mL (≈ 0.32 µM); in assay [5] it was 0.125 µg/mL (≈ 0.32 µM); in assay [6], 2 µg/mL (≈ 5.12 µM).

Take `C[C@H]1COc2c(N3CCN(C)CC3)c(F)cc3c(=O)c(C(=O)O)cn1c23` [LVFX, levofloxacin, reference compound]: the minimal inhibitory concentration (MIC) came out at 0.5 µg/mL (≈ 1.38 µM) in assay [1]; 4 µg/mL (≈ 11.1 µM) in assay [2]; 0.25 µg/mL (≈ 0.692 µM) in assay [3]; 1 µg/mL (≈ 2.77 µM) in assay [4]; 0.063 µg/mL (≈ 0.174 µM) in assay [5]; 0.5 µg/mL (≈ 1.38 µM) in assay [6].
